Test results published in US10285986B2, “Compounds and anti-tumor NQO1 substrates” (The Board of Trustees of the University of Illinois, priority 2011, dated 2019).
Values after ≈ are worked out from the molar mass of the structure shown. Like-named read-outs stand apart in the source and are kept apart here.

Tests used:
MCF-7 cells = assay: Cytotoxicity to MCF-7 cells with or without 25 μM dicoumarol (sulforhodamine B assay); type: cell-based, human; conditions: for Fold protection by DIC: Table 4.2
Method: The NQO1-dependent cytotoxicity of the first set of derivatives was determined in MCF-7 cells which express high levels of NQO1. Cells were exposed to DNQ for 2 hours in the presence or absence of 25 μM DIC. The media was then removed and cells were washed once with media then fresh media was added and the cells were incubated for 72 hours. Cell death was assessed using the sulforhodamine B assay previously described. […] Substitution off the nitrogen appeared well tolerated (4-14 and 4-15).
The DNQ derivatives synthesized were assayed for their toxicity to MCF-7 cells with or without DIC. The data from these experiments is organized in Table 4.2. […] This tolerance of sterically-demanding substituents corresponds with a flexible and promiscuous NQO1 active site. The poor activity of hydroxyl derivative 4-41 may be a result of either poor binding with the largely hydrophobic NQO1 active site or with an excessively strong substrate-enzyme interaction because of hydrogen bonding.

NQO1 = NQO1 (Homo sapiens, UniProt P15559); assay: NQO1 enzymatic measurements in vitro; type: biochemical; conditions: 1 μM substrate
Sequence of NQO1 (P15559 whole entry): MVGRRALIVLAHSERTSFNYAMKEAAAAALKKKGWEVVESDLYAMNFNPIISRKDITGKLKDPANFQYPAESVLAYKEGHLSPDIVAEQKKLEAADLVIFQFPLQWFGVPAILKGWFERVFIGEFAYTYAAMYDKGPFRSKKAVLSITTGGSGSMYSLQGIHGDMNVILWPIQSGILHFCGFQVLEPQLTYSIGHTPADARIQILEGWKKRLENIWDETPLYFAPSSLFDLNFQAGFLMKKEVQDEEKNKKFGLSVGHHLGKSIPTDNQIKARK
Method: As further evidence that the activity of these DNQ derivatives is dependent on their ability to be reduced by NQO1, full enzymatic measurements in vitro were performed. We found a strong correlation between catalytic efficiency of substrates in vitro and their cell culture toxicity. […] This provides strong evidence that the cytotoxicity of DNQ and its derivatives are dependent primarily upon the activity of NQO1 within the cell.

[1] = Solubility in organic solvents; type: physicochemical; conditions: for solubility: organic solvent or mixture, thermodynamic from solid
Method: The solubility of DNQ derivatives in organic solvents was determined by measuring the amount of a given solvent required to dissolve a known amount of compound. Solvent was added to the compound in 50 μL aliquots and the slurry was sonicated. […] Solubility was assessed in DMSO, dichloromethane, and 33% methanol in dichloromethane (FIGS. 9, 10, and 11, respectively).

[2] = Aqueous solubility in pH 7.4 PBS by LC-MS; type: physicochemical; conditions: phosphate buffered saline, pH 7.4, aqueous buffer, thermodynamic from solid, PBS pH 7.4; Table 4.3
Method: The aqueous solubility of DNQ at pH 7.4 in phosphate buffered saline (PBS) was measured by LC-MS. DNQ was sonicated for 30 minutes in PBS then undissolved solid was removed by filtration through a 0.45 μm syringe filter and the filtrate was analyzed by LC-MS (λ=275 nm, ESI-TOF in negative mode). The optimal sonication time was determined by sonicating DNQ for 1, 5, 10, and 30 minutes. While the concentration of DNQ in solution increased substantially between 1, 5, and 10 minutes, there was only a minor difference between 10 and 30 minutes. During the 30 minute sonication the water bath warmed to 45° C. (samples were cooled to room temperature before filtration). A calibration curve was generated from 1-100 μM by dissolving DNQ in methanol to a concentration of 500 μM and making dilutions of this stock in 80:20 water:methanol. The calibration curve (measure by UV absorbance) was linear over this range; 1 μM was approximately the limit of detection. […] The solution was very pale yellow.
The aqueous solubility of the compounds was determined by an LC-MS assay as described in the specification above. We applied the calibration curve generated for DNQ to the derivatives under the assumption that the UV profile of the derivatives of DNQ would be similar to that of DNQ.
After sonication and filtration most of the aqueous solutions were colorless. The solutions of DNQ, 4-31, and 4-37 were faintly yellow while 4-8, 4-14 and 4-41 were substantially more colored. The solution of 4-8, 4-14 and 4-41 were diluted 10-fold with PBS prior to LC-MS analysis to ensure that the concentrations fell within the range of the calibration curve.

[3] = Solubility in organic solvents; type: physicochemical; conditions: organic solvent or mixture, thermodynamic from solid; THF; Table 1
[4] = Solubility in 20% HPβCD solution (pH modulation protocol); type: physicochemical; conditions: 20% HPβCD in pH 7.4 PBS, pH 7.4, aqueous with cosolvent or surfactant or cyclodextrin, thermodynamic from solid; 20% HPβCD; Table 4.3
Method: The protocol for formulating DNQ compounds in HPβCD is as follows: the DNQ compound is slurried in a 20% solution of HPβCD in pH 7.4 PBS and the pH is then increased by the addition of 10 M NaOH to induce dissolution of the DNQ compound. The pH is returned to pH 7.5-8.0 by the careful addition of 1 M HCl. A 3.3 mM solution of the DNQ compound can be made by this method which is stable at least 24 hours. This represents a 30-fold increase in solubility of DNQ over PBS alone.
Although we were pleased to find active derivatives of DNQ that were up to 4-fold more soluble in water—sufficiently soluble for continuous IV infusion for human administration—this level of solubility was insufficient for animal studies by bolus injection. […] We used the same pH modulation protocol outlined for DNQ described in the specification above. The results are organized in Table 4.3 and FIG. 8. While all compounds were more soluble in HPβCD than in buffer alone, the fold increase in solubility varied widely.

[5] = Homo sapiens, MCF7, Table 1, read-out: MCF7 IC50
[6] = Homo sapiens, MCF7, Table 4.2, no DIC, ± s.e., read-out: IC50 vs. MCF-7 cells
[7] = Homo sapiens, MCF7, classification in figure legends of FIGS. 7-11, read-out: IC50 ("active" / generally "inactive" compounds)
[8] = Homo sapiens, MCF7, read-out: IC50 vs. MCF-7 cells +25 μM DIC, Table 4.2, +25 μM DIC, ± s.e.
[9] = 2:1 CH2Cl2:MeOH, Table 4.3, read-out: Solubility in 2:1 CH2Cl2:MeOH
[10] = CH2Cl2:MeOH 2:1, Table 1, read-out: CH2Cl2:MeOH 2:1 solubility
[11] = CH2Cl2, Table 1, read-out: CH2Cl2 solubility
[12] = DMSO, Table 1, read-out: DMSO solubility
[13] = CH2Cl2, Table 4.3, read-out: Solubility in CH2Cl2
[14] = DMSO, Table 4.3, read-out: Solubility in DMSO

Row | SMILES | IC50 (MCF-7 cells; [5]) | IC50 (MCF-7 cells; [6]) | IC50 (MCF-7 cells; [7]) | IC50 (MCF-7 cells; [8]) | Fold Protection of MCF7 cells w/ 25 μM dicoumarol (MCF-7 cells; Table 1) | Fold protection by DIC (MCF-7 cells) | NQO1 Initial Velocity @ 1 μM (NQO1) | Solubility in CH2Cl2 ([1]; CH2Cl2, Table 4.3) | Solubility in DMSO ([1]; DMSO, Table 4.3) | solubility [1, 9] | solubility [1, 10] | solubility [1, 11] | solubility [1, 12] | solubility at 30 min [2] | solubility [3] | IC50 (MCF-7 cells; Table 1, read-out: MCF7 IC50) | solubility [1, 13] | solubility [1, 14] | solubility [4]
1 | CCCCn1c2c(c(CCC)cc1=O)C(=O)c1c(C)cc(=O)[nH]c1C2=O [Compound 4-26] | 770 nM | 770 ± 190 nM | > 500 nM | 2200 ± 600 nM | 2.8 | 2.8 | 1300 ± 200 | 24 mM (≈ 8510 µg/mL) | 14 mM (≈ 4960 µg/mL) | 75 mM (≈ 26600 µg/mL) | 75 mM (≈ 26600 µg/mL) | 24 mM (≈ 8510 µg/mL) | 14 mM (≈ 4960 µg/mL) | < 0.005 mM | 17 mM (≈ 6020 µg/mL) | – | – | – | –
2 | Cc1cc(=O)n(C)c2c1C(=O)c1c(C)cc(=O)n(C)c1C2=O [SCH, reference compound] | 3900 nM | – | – | – | 3.5 | – | 32 ± 2 | – | – | – | 60 mM (≈ 17900 µg/mL) | 25 mM (≈ 7460 µg/mL) | 15 mM (≈ 4470 µg/mL) | – | 3.7 mM (≈ 1100 µg/mL) | – | – | – | –
3 | Cc1cc(=O)[nH]c2c1C(=O)c1c(C)cc(=O)n(CCCO)c1C2=O [Compound 9-281] | 790 ± 100 nM | 680 ± 150 nM | > 500 nM | 3400 ± 600 nM | 4 | 5.0 | 1600 ± 200 | 0.3 mM (≈ 98.5 µg/mL) | 24 mM (≈ 7880 µg/mL) | 11 mM (≈ 3610 µg/mL) | 11 mM (≈ 3610 µg/mL) | 0.3 mM (≈ 98.5 µg/mL) | 24 mM (≈ 7880 µg/mL) | 0.485 mM (≈ 159 µg/mL) | 0.67 mM (≈ 220 µg/mL) | – | – | – | –
4 | CO[C@@]12[C@H](COC(N)=O)C3=C(C(=O)C(C)=C(N)C3=O)N1C[C@@H]1N[C@@H]12 [MMC, mitomycin C, reference compound] | – | – | – | – | 1 | – | – | – | – | – | – | – | – | – | – | 14000 nM | – | – | –
5 | CCc1cc(=O)[nH]c2c1C(=O)c1c(CC)cc(=O)n(C)c1C2=O [Compound 4-29] | 5000 nM | 3800 ± 1200 nM | > 500 nM | 4800 ± 1100 nM | 1.2 | 1.3 | 250 ± 20 | 10 mM (≈ 3120 µg/mL) | 21 mM (≈ 6560 µg/mL) | 46 mM (≈ 14400 µg/mL) | 46 mM (≈ 14400 µg/mL) | 10 mM (≈ 3120 µg/mL) | 21 mM (≈ 6560 µg/mL) | 0.084 mM (≈ 26.2 µg/mL) | 6.2 mM (≈ 1940 µg/mL) | – | – | – | –
6 | Cc1cc(=O)[nH]c2c1C(=O)c1c(C)cc(=O)n(C3CCCCCCC3)c1C2=O [Compound 4-39] | – | 830 ± 70 nM | > 500 nM | 4100 ± 800 nM | – | 3.8 | – | – | – | 46 mM (≈ 17500 µg/mL) | – | – | – | 0.024 mM (≈ 9.13 µg/mL) | – | – | 120 mM (≈ 45700 µg/mL) | 71 mM (≈ 27000 µg/mL) | –
7 | CCCCCCCn1c2c(c(C)cc1=O)C(=O)c1c(C)cc(=O)[nH]c1C2=O [Compound 4-25] | – | 420 ± 110 nM | < 500 nM | 4500 ± 400 nM | – | 11 | – | – | – | – | – | – | – | < 0.005 mM | – | – | 30 mM (≈ 11100 µg/mL) | 13 mM (≈ 4790 µg/mL) | 3 mM (≈ 1110 µg/mL)
